What was measured:
Format in all cases: in vivo
[1] = test system: Hard Tick Larvae (Rhipicephalus sanquineus); experiment: Hard Tick Larvae (Rhipicephalus sanquineus) Whole Organism Contact Assay; details: tick larvae in coated vials; knockdown examined at approximately 24 and 48 hours
Method: Hard Tick Larvae (Rhipicephalus sanquineus) Whole Organism Contact Assay
Formula (1) compounds were dissolved in isopropyl alcohol (IPA) and aliquots were added to vials placed on a roller for at least 2 hours to allow the IPA to evaporate. IPA alone was used as a negative control and fipronil was used as a positive control. Approximately 50-200 tick larvae were added to the vials using a swab and the vials were closed. At approximately 24 and 48 hours, the vials were examined and knockdown was recorded as active. Vials showing knockdown were examined for tick paralysis and/or death at approximately 48 hrs. Endpoint data can be recorded as an effective dose 100% (ED^100) and/or a lethal dose 100% (LD^100) in μg/cm^2.

[2] = test system: Horn Fly (Haematobia irritans); experiment: Horn Fly (Haematobia irritans) Feed Assay; details: horn flies fed on treated citrated bovine blood; knockdown and mortality at approximately 2 and 24 hours
Method: Horn Fly (Haematobia irritans) Feed Assay
Formula (1) compounds were dissolved in DMSO and aliquots were added to citrated bovine blood in a membrane covered Petri dish. Approximately ten horn flies were placed onto each Petri dish and covered. The flies were allowed to feed on the treated blood cell. Flies were held at approximately 80° F. with a minimum of approximately 50% relative humidity. Flies were examined for knockdown and mortality at approximately 2 and 24 hours. Endpoint data were recorded as a lethal dose 90% (LD^90) in μg/mL.

[3] = test system: Flea (Ctenocephalides felis); experiment: Flea (Ctenocephalides felis) Membrane Feed Assay-Adult; details: adult fleas fed on treated citrated bovine blood for approximately 2 hours; knockdown and/or death at approximately 2 and 24 hours
Method: Flea (Ctenocephalides felis) Membrane Feed Assay-Adult
Formula (1) compounds were dissolved in DMSO and aliquots were added to citrated bovine blood in a membrane covered Petri dish pre-warmed to 37° C. Feeding tubes containing approximately 30-35 adult fleas were placed onto the Petri dishes. The fleas were allowed to feed for approximately 2 hours. […] Endpoint data were recorded as an efficacious dose 80% (ED^80) in μg/mL.

| SMILES | ED^100 (effective dose 100%) [1] [μg/cm^2] | LD^90 (lethal dose 90%) [2] [µg/mL] | ED^80 (efficacious dose 80%) [3] [µg/mL] |
| --- | --- | --- | --- |
| O=C(CC(=O)NCC1CC1)NCc1cc(C2=NOC(c3cc(Cl)c(Cl)c(Cl)c3)(C(F)(F)F)C2)ccc1F (stereo not shown) [Example 2, N-Cyclopropylmethyl-N′-{2-fluoro-5-[5-(3,4,5-trichloro-phenyl)-5-trifluoromethyl-4,5-dihydro-isoxazol-3-yl]-benzyl}-malonamide] | 10.0 |  |  |
| O=C(NCc1cc(C2=NOC(c3cc(Cl)c(Cl)c(Cl)c3)(C(F)(F)F)C2)ccc1F)C1CC1 (stereo not shown) [Example 5, N-{2-fluoro-5-[5-(3,4,5-trichlorophenyl)-5-(trifluoromethyl)-4,5-dihydroisoxazol-3-yl]benzyl}cyclopropanecarboxamide] |  | 1 | 3 |
| CCC(=O)NCc1cc(C2=NOC(c3cc(Cl)c(Cl)c(Cl)c3)(C(F)(F)F)C2)ccc1F (stereo not shown) [Example 7, N-{2-fluoro-5-[5-(3,4,5-trichlorophenyl)-5-(trifluoromethyl)-4,5-dihydroisoxazol-3-yl]benzyl}propanamide] |  | 1 | 10 |
| O=C(CC1CC1)NCc1cc(C2=NOC(c3cc(Cl)c(Cl)c(Cl)c3)(C(F)(F)F)C2)ccc1F (stereo not shown) [Example 8, 2-cyclopropyl-N-{2-fluoro-5-[5-(3,4,5-trichlorophenyl)-5-(trifluoromethyl)-4,5-dihydroisoxazol-3-yl]benzyl}acetamide] |  | 3 |  |
| O=C(NCc1cc(C2=NOC(c3cc(Cl)c(Cl)c(Cl)c3)(C(F)(F)F)C2)ccc1F)C1CCC1 (stereo not shown) [Example 6, N-{2-fluoro-5-[5-(3,4,5-trichlorophenyl)-5-(trifluoromethyl)-4,5-dihydroisoxazol-3-yl]benzyl}cyclobutanecarboxamide] |  | 3 | 10 |
| O=C(NCc1cc(C2=NOC(c3cc(Cl)c(F)c(Cl)c3)(C(F)(F)F)C2)ccc1F)C1CC1 (stereo not shown) [Example 12, N-{5-[5-(3,5-dichloro-4-fluorophenyl)-5-(trifluoromethyl)-4,5-dihydroisoxazol-3-yl]-2-fluorobenzyl}cyclopropanecarboxamide] |  |  | 3 |
| CC(=O)NCc1cc(C2=NOC(c3cc(Cl)c(Cl)c(Cl)c3)(C(F)(F)F)C2)ccc1Br (stereo not shown) [Example 18, N-(2-bromo-5-(5-(3,4,5-trichlorophenyl)-5-(trifluoromethyl)-4,5-dihydroisoxazol-3-yl)benzyl)acetamide] |  | 1 | 10 |
| CC(C)CC(=O)NCc1cc(C2=NOC(c3cc(Cl)c(Cl)c(Cl)c3)(C(F)(F)F)C2)ccc1F (stereo not shown) [Example 9, N-{2-fluoro-5-[5-(3,4,5-trichlorophenyl)-5-(trifluoromethyl)-4,5-dihydroisoxazol-3-yl]benzyl}-3-methylbutanamide] |  | 3 |  |
| CC(=O)NCc1cc(C2=NOC(c3cc(Cl)c(Cl)c(Cl)c3)(C(F)(F)F)C2)ccc1F (stereo not shown) [Example 3, N-{5-[5-(3,4,5-trichlorophenyl)-5-(trifluoromethyl)-4,5-dihydroisoxazol-3-yl]-2-fluorobenzyl}acetamide] |  | 10 | 3 |
| CC(=O)NCc1cc(C2=NOC(c3cc(Cl)c(F)c(Cl)c3)(C(F)(F)F)C2)ccc1Cl (stereo not shown) [Example 17, N-{2-chloro-5-[5-(3,5-dichloro-4-fluorophenyl)-5-(trifluoromethyl)-4,5-dihydroisoxazol-3-yl]benzyl}acetamide] |  | 1 |  |
| O=C(NCc1cc(C2=NOC(c3cc(Cl)c(F)c(Cl)c3)(C(F)(F)F)C2)ccc1F)C1CC(F)(F)C1 (stereo not shown) [Example 13, N-{5-[5-(3,5-dichloro-4-fluorophenyl)-5-(trifluoromethyl)-4,5-dihydroisoxazol-3-yl]-2-fluorobenzyl}-3,3-difluorocyclobutanecarboxamide] |  |  | 3 |
| CC(=O)NCc1cc(C2=NOC(c3cc(Cl)c(F)c(Cl)c3)(C(F)(F)F)C2)ccc1F (stereo not shown) [Example 11, N-{5-[5-(3,5-dichloro-4-fluorophenyl)-5-(trifluoromethyl)-4,5-dihydroisoxazol-3-yl]-2-fluorobenzyl}acetamide] |  | 3 |  |
| CC(C)C(=O)NCc1cc(C2=NOC(c3cc(Cl)c(Cl)c(Cl)c3)(C(F)(F)F)C2)ccc1F (stereo not shown) [Example 4, N-{2-fluoro-5-[5-(3,4,5-trichlorophenyl)-5-(trifluoromethyl)-4,5-dihydroisoxazol-3-yl]benzyl}-2-methylpropanamide] |  | 1 |  |
| CCNC(=O)CC(=O)NCc1cc(C2=NOC(c3cc(Cl)c(Cl)c(Cl)c3)(C(F)(F)F)C2)ccc1F (stereo not shown) [Example 1, N-ethyl-N′-{2-fluoro-5-[5-(3,4,5-trichloro-phenyl)-5-trifluoromethyl-4,5-dihydro-isoxazol-3-yl]-benzyl}-malonamide] | 10.0 |  |  |
